Reference: patent publication US6774126B2, “Pyrrolo[1,2-b][1,2,4]oxadiazine diones useful as nitric oxide synthase inhibitors” (Pharmacia Corporation, priority 1998, dated 2004)

System: plasma nitrites induced by endotoxin (LPS)
Assay: In Vivo Assay: Low Dose LPS, plasma nitrites in endotoxin-treated mice
Conditions: LPS 12.5 mg/kg i.p., plasma nitrites 5 hours post-treatment
Description: In Vivo Assay Mice were treated with an intraperitoneal injection of 12.5 mg/kg of endotoxin (LPS) with or without oral administration of the nitric oxide synthase inhibitors. Plasma nitrites were measured 5 hours post-treatment.

| SMILES | Low Dose LPS in vivo, inhibition of rise in plasma nitrites (compound 1 mg/kg p.o.) | Low Dose LPS in vivo, inhibition of rise in plasma nitrites (compound 10 mg/kg p.o.) | Low Dose LPS in vivo, inhibition of rise in plasma nitrites (compound 3 mg/kg p.o.) |
| --- | --- | --- | --- |
| O=c1onc2n1CCCCC2 [Example 1, 6,7,8,9-tetrahydro-3H,5H-[1,2,4]oxadiazolo[4,3-a]azepin-3-one] | 23% inh. | 72% inh. | – |
| NCCC1CCCCc2noc(=O)n21 (stereo not shown) [Example 3, 5-(2-aminoethyl)-6,7,8,9-tetrahydro-3H,5H-[1,2,4]oxadiazolo[4,3-a]azepin-3-one, mono(trifluoroacetate)] | – | 64% inh. | 33% inh. |
